Tests used:
Test in all cases: 5-day viable cell number and apoptosis (7-AAD exclusion/Annexin V flow cytometry)
Assay type in all cases: cell-based
DB = settings: Homo sapiens; DB cells (Table 3)
Source text: (§1) The DLBCL panel includes seven cell lines classified as activated B-cell (ABC) subtype, thirteen cell lines classified as the germinal center B-cell (GCB) subtype, and three cell lines classified as primary mediastinal B-cell lymphoma (PMBL). […] The translocation of MYC, BCL6, or BCL2 to an IG locus usually leads to high levels of mRNA and protein due to the active transcription driven by a constitutively active IG promoter. […] Expressions of CRBN protein and known substrates, Ikaros, Aiolos, and ZFP91 were also evaluated (FIG. 1, panels B and C).
(§2) The panel of cell lines were treated with increasing doses of compounds for five days, at which time the number of viable cells was measured and the amount of apoptosis was determined by 7-AAD exclusion and Annexin V staining using flow cytometry.

Farage = Farage cells (Table 3); read-out: IC50
Source text: as §1, §2

HT = settings: Homo sapiens; HT cells (Table 3); read-out: IC50
Source text: as §1, §2

KARPAS-422 = settings: Homo sapiens; KARPAS-422 cells (Table 3); read-out: IC50
Source text: as §1, §2

OCI-Ly10 = settings: Homo sapiens; OCI-Ly10 cells (Table 3); read-out: IC50
Source text: as §1, §2

Pfeiffer = settings: Homo sapiens; Pfeiffer cells (Table 3)
Source text: as §1, §2

RIVA = RIVA cells (Table 3); read-out: IC50
Source text: as §1, §2

SU-DHL-10 = settings: Homo sapiens, SU-DHL10; SU-DHL-10 cells (Table 3); read-out: IC50
Source text: as §1, §2

SU-DHL-16 = settings: Homo sapiens; SU-DHL-16 cells (Table 3); read-out: IC50
Source text: as §1, §2

SU-DHL-2 = settings: Homo sapiens; SU-DHL-2 cells (Table 3); read-out: IC50
Source text: as §1, §2

SU-DHL-4 = settings: Homo sapiens; SU-DHL-4 cells (Table 3); read-out: IC50
Source text: as §1, §2

TMD8 = settings: Homo sapiens; TMD8 cells (Table 3); read-out: IC50
Source text: as §1, §2

Toledo = settings: Homo sapiens; Toledo cells (Table 3); read-out: IC50
Source text: as §1, §2

U2932 = settings: Homo sapiens; U2932 cells (Table 3); read-out: IC50
Source text: as §1, §2

U2940 = settings: Homo sapiens, U-2940; U2940 cells (Table 3); read-out: IC50
Source text: as §1, §2

WSU-DLCL2 = settings: Homo sapiens, WSUDLCL2; WSU-DLCL2 cells (Table 3); read-out: IC50
Source text: as §1, §2

IC50 (KARPAS-422): 1 µM
IC50 (OCI-Ly10): 3 µM
IC50 (SU-DHL-10): 0.6 µM
IC50 (SU-DHL-16): 1.5 µM
IC50 (SU-DHL-2): 1.3 µM
IC50 (SU-DHL-4): 1 µM
Structure (SMILES): COc1cccc2c1C(=O)c1c(O)c3c(c(O)c1C2=O)C[C@@](O)(C(=O)CO)C[C@@H]3O[C@H]1C[C@H](N)[C@H](O)[C@H](C)O1 [Doxorubicin, reference compound]
IC50 (DB): 3.8 µM
IC50 (Farage): 1.2 µM
IC50 (HT): 2 µM
IC50 (Pfeiffer): 3 µM
IC50 (RIVA): 5.5 µM
IC50 (TMD8): 0.7 µM
IC50 (Toledo): 4 µM
IC50 (U2932): 3 µM
IC50 (U2940): 2 µM
IC50 (WSU-DLCL2): 1.5 µM

Reference: US20210116454A1, “METHODS FOR TREATING A HEMATOLOGICAL CANCER AND THE USE OF COMPANION BIOMARKERS FOR 2-(2,6-DIOXOPIPERIDIN-3-YL)-4-((2-FLUORO-4-((3-MORPHOLINOAZETIDIN-1-YL)METHYL)BENZYL)AMINO)ISOINDOLINE-1,3-DIONE” (CELGENE CORPORATION, priority 2019, published 2021)
